Assay results published in US7825102B2, “Treatment of dry eye conditions” (Can-Fite Biopharma Ltd., priority 2004, dated 2010).
“Also recorded” adds a separate entry of the source.

Tests used:
Type in all cases: in vivo, human
[1] = system: patient with rheumatoid arthritis (RA) and secondary Sjogren symptoms, mainly manifested by dry eye; assay: Phase 2 clinical trial: dry eye symptoms of one patient with RA and secondary Sjogren symptoms
From the text: A patient with rheumatoid arthritis (RA) and secondary Sjogren symptoms, mainly manifested by dry eye, treated for years with eye drops (tear substitutes) participated in a phase 2 clinical trial with IB-MECA for the treatment of active RA. […] The patient took part in a phase 2, multicenter, randomized, double-blind, parallel-group, dose-ranging study of the safety and preliminary efficacy of daily IB-MECA administered orally for 12 weeks to patients with active rheumatoid arthritis. The patient is a person with a 7 year history of RA, previously treated with 3 disease-modifying anti-rheumatic drugs (DMARDs), and a history of 2-3 years of dry eyes treated with tear substitutes a few times a day. After a 4 week DMARD washout period, the patient was treated with a blinded dose of IB-MECA—either 0.1, 1.0 or 4.0 mg q 12 h for 12 weeks. They are currently continuing IB-MECA treatment under a long term extension protocol of the original 12 weeks study.

[2] = system: RA patients who also suffered from Sicca (dry eyes); assay: Schirmer test in RA patients with Sicca given oral IB-MECA capsules twice daily
Method: The IB-MECA was formulated in oval softgel capsules. The capsules contained solutions of IB-MECA in Cremophor RH 40 and Miglyol 812. The capsules contained a dose of 0.1, 1 or 4 mg of IB-MECA, the exact composition of each capsules' type is shown in the following Tabels 1-3: The capsules with IB-MECA were given to patients orally twice daily. All patients had rheumatoid arthritis (RA) and were give IB-MECA within the framework of a clinical study aimed at testing the effect of IB-MECA in modifying RA disease symptoms in these patients. The patients received randomly capsules of one of the above there doses. The patients received the IB-MECA for a period of 12 weeks. 4 out of the treated patients also suffered from Sicca and the effect of IB-MECA on their dry eye symptoms was examined as well. Specifically, four patients at the age 58±4 years who suffered from RA for 8±2 years were followed. At base line, the patients had elevated levels of rheumatoid factor, i.e., 313±120 IU/ml (0<normal<40) and had suffered from dry eyes for 5±1.6 years. Upon treatment with IB-MECA for 6.25±1.1 months, an improvement in Schirmer's test from 8.5±1.4 mm to 15.6±2.9 mm was observed.

[3] = system: patient with active rheumatoid arthritis; assay: Phase 2 clinical trial: condition of the RA in the same patient; conditions: one patient; blinded dose 0.1, 1.0 or 4.0 mg q 12 h oral, 12 weeks
From the text: The patient took part in a phase 2, multicenter, randomized, double-blind, parallel-group, dose-ranging study of the safety and preliminary efficacy of daily IB-MECA administered orally for 12 weeks to patients with active rheumatoid arthritis. The patient is a person with a 7 year history of RA, previously treated with 3 disease-modifying anti-rheumatic drugs (DMARDs), and a history of 2-3 years of dry eyes treated with tear substitutes a few times a day. After a 4 week DMARD washout period, the patient was treated with a blinded dose of IB-MECA—either 0.1, 1.0 or 4.0 mg q 12 h for 12 weeks. They are currently continuing IB-MECA treatment under a long term extension protocol of the original 12 weeks study.

[4] = Patient 3, dose 4.0 twice daily oral, 7 months treatment, base line 5

In the case of `CNC(=O)[C@H]1O[C@@H](n2cnc3c(NCc4cccc(I)c4)ncnc32)[C@H](O)[C@@H]1O` [IB-MECA, N^6-(3-iodobenzyl)-adenosine-5′-N-methyluronamide], the “symptoms of dry eye (secondary Sjogren's syndrome)” value ([1]; blinded dose 0.1, 1.0 or 4.0 mg q 12 h oral, 12 weeks plus extension) is reported as “improved significantly; also recorded: substantial improvement”, the “time of IB-MECA administration after which tear substitutes were no longer needed” value ([1]; patient-reported, blinded dose 0.1, 1.0 or 4.0 mg q 12 h oral) is reported as 3-4 weeks and the “current dry eye symptoms under continued treatment” value ([1]; patient-reported, long term extension protocol) is reported as “no symptoms of dry eye”. For the same compound, the “Schirmer test Left eye End of study” value ([2]; Mean of 4 patients, doses 0.1-4.0 twice daily, mean 6.25 months treatment, base line mean 6.75) was 16.5 mm, the “Schirmer test Right eye End of study” value ([2]; Mean of 4 patients, doses 0.1-4.0 twice daily, mean 6.25 months treatment, base line mean 10.25) was 14.75 mm and the “Schirmer test Left eye End of study” value ([2]; Patient 1, dose 0.1 twice daily oral, 4 months treatment, base line 6) was 9 mm. For the same compound, the “Schirmer test Right eye End of study” value ([2]; Patient 1, dose 0.1 twice daily oral, 4 months treatment, base line 14) was 9 mm, the “Schirmer test Left eye End of study” value ([2]; Patient 2, dose 1.0 twice daily oral, 5 months treatment, base line 10) was 32 mm and the “Schirmer test Right eye End of study” value ([2]; Patient 2, dose 1.0 twice daily oral, 5 months treatment, base line 15) was 23 mm. For the same compound, the “Schirmer test Left eye End of study” value [2, 4] was 16 mm, the “Schirmer test Right eye End of study” value [2, 4] was 17 mm and the “Schirmer test Left eye End of study” value ([2]; Patient 4, dose 1.0 twice daily oral, 9 months treatment, base line 6) was 9 mm. For the same compound, the “Schirmer test Right eye End of study” value ([2]; Patient 4, dose 1.0 twice daily oral, 9 months treatment, base line 7) was 10 mm, the “Schirmer's test after treatment” value ([2]; four RA patients, treatment for 6.25±1.1 months, improvement from 8.5±1.4 mm at base line) was 15.6±2.9 mm and the “condition of the RA (swollen and tender joints, ESR and CRP, global assessments, pain and disability)” value [3] was “marked improvement”.
